From PMC11811597, “Phenomics‐Based Discovery of Novel Orthosteric Choline Kinase Inhibitors” (Angewandte Chemie (International Ed. in English), 2025)

Experiments:
FAM195A = molecular target: T1, FAM195A (Homo sapiens, UniProt Q9BUT9); assay: Competitive affinity-based chemoproteomics (UNC0965 matrix), MCF7 lysate; type: binding; conditions: 20 μM competitor, n=2
T1 construct: endogenous in cells; host or cells: MCF7 whole cell lysate
Description: (§1) A-366 and UNC0638 were purchased from Tocris. ARIAD and V-11-07-11 were purchased from Wuxi Apptec. UNC0737 and UNC0965 were synthesised as previously described.[1] Hemicholinium-3 and pyruvate kinase/lactic dehydrogenase enzymes were purchased from Sigma Aldrich. Aqueous and organic solvents were MS-grade and acquired by Sigma Aldrich unless stated otherwise.
(§2) MDA-MB-231, MCF7 and HEK293 cells were cultured in DMEM (Gibco, #11965092) supplemented with 10% FBS. K562 were cultured in IMDM (Gibco, #12440053) supplemented with 10% FBS. HepG2 were cultured in MEM (Gibco, #11095080) supplemented with 10 % FBS. […]
(§3) cultured in McCoy’s 5A (Sigma, M8403) supplemented with 10 % FBS and 1x GlutaMAX (Gibco, #35050061). Cells were maintained at 37 °C in a humidified 5% CO2 atmosphere. Peripheral blood mononuclear cells (PBMC) were isolated from healthy blood donors by density centrifugation. […]
(§4) Cell Titer-Glo® reagent was added to each well and total luminescence readings were performed within 15 min using the PHERAstar FSX (BMG Labtech). […]
(§5) Digested samples were analysed by nano-UPLC–MS/MS using a Dionex Ultimate 3000 nano UPLC fitted with an EASY spray column (75 μm × 500 mm, 2 μm particle size, Thermo Scientific), coupled to an Orbitrap Q Exactive instrument. […]

ZNF644 = assay: as above; type: binding, human; conditions: 20 μM competitor, n=2
Description: as §1, §2, §3, §4, §5

[1] = system: primary human cell‐based tissue and disease models; assay: BioMAP Diversity PLUS panel; conditions: for clustering of overall BioMAP responses across all biomarkers: 12 systems, Pearson's correlation >0.7; for IgG secretion, BioMAP PBMC panel: BioMAP B cell profiling
Text: Having confirmed that UNC0638 and UNC0737 are potent bona fide CHKA inhibitors, we next turned our attention to further investigate the role of CHKA in cellular signalling. While CHKA has been studied extensively in the context of malignant disease, there has been a growing acknowledgment of its relevance in immune metabolism.[9, 10] […] We profiled UNC0638 and UNC0737 alongside the orthogonal CHKA inhibitors V‐11‐0711 and ARIAD against the BioMAP Diversity PLUS panel (Figures S7).[24] This set comprises 148 distinct biomarkers across 12 systems, including panels for systemic immune responses. […] The decrease in IgG secretion was accompanied by a reduction in stimulation‐induced B cell maturation into CD27^+IgD^− memory CD19^+ B cells (Figure 4D). […]
consecutive concentrations change in the same direction relative to vehicle controls, are outside of the significance envelope, and have at least one concentration with an effect size > 20% (|log10ratio| > 0.1). Biomarker key activities are described as modulated if these activities increase in some systems, but decrease in others. Cytotoxicity is indicated on the profile plot by a thin black arrow above the x- […]
Cytotoxicity and antiproliferative arrows only require one concentration to meet the indicated threshold for profile annotation. […]

T1 sequence (Q9BUT9 whole entry): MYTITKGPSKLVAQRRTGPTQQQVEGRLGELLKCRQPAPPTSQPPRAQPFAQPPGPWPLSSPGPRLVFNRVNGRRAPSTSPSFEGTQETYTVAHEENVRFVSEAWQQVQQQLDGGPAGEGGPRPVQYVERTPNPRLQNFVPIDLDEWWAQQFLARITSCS

Compound | FC vs DMSO (log2 competition), FAM195A (FAM195A) | FC vs DMSO (log2 competition), ZNF644 (ZNF644) | clustering of overall BioMAP responses across all biomarkers [1] | IgG secretion, BioMAP PBMC panel [1]
COc1cc2c(NC3CCN(C(C)C)CC3)nc(C3CCCCC3)nc2cc1OCCCN1CCCC1 [UNC0638] | -1.845 | -2.1553 | clustered together with the known CHKA inhibitors | significant effects on IgG secretion
COc1cc2c(N(C)C3CCN(C(C)C)CC3)nc(C3CCCCC3)nc2cc1OCCCN1CCCC1 [UNC0737] | -0.06296 | 0.3825 | clustered together with the known CHKA inhibitors | significant effects on IgG secretion
